Assay in all cases: growth of human tumour cells (NCI), 48 h
Test [1] has as its system K-562 leukemia.
Test [2] has as its system M14 melanoma.
The subject of test [3] is MALME-3M melanoma.
Test [4] concerns MCF7 breast.
Test [5] deals with OVCAR-4 ovarian.
The subject of test [6] is SK-MEL-28 melanoma.
Test [7] relates to SK-MEL-5 melanoma.
For test [8], the system named is SK-OV-3 ovarian.
Test [9] deals with SNB-19 CNS.
The subject of test [10] is U251 CNS.

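Method: 48-hour compound exposure of cells in 96-well plates, five concentrations, linear interpolation of endpoints. GI50: concentration for 50% inhibition of growth. TGI: total growth inhibition.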

For the compound `Cc1ccc2c(c1)C(=O)/C(=C/c1cccc(OCC(=O)c3ccc(Cl)cc3)c1)CS2`, the GI50 is 2.45 µM in [1]; 4.07 µM in test [2]; 15.5 µM in test [3]; 3 µM in [4]; 4.07 µM in test [5]; 2.27 µM in [6]. In addition, the GI50 was 6.95 µM in [7], 25.1 µM in test [8], 19.5 µM in test [9] and 3.14 µM in test [10]. The TGI in test [1] is 8.2 µM; in test [2], 27.4 µM; in test [3], 46.1 µM; in test [4] it was 11.3 µM; in test [5] it was 18.5 µM; in [6], 4.93 µM. Also, the TGI in test [7] was determined as 19.6 µM; in [8], 90.9 µM; in [9], 77.1 µM; in test [10] it was 13.6 µM.

For the origin of these results see PubChem BioAssay (NCI).
